Results: patent EP1704862A1, “2,5-bis(tetrahydroxybutyl)pyrazines for the treatment of osteoarthritis and rheumatoid arthritis” (ROTTAPHARM S.P.A., priority 2005, dated 2006)
Read-outs that look alike come from different tables or passages of the source.

Legend:
NO Synthesis [1] = details: Bovine articular cartilage, IL-1β induced; Osteoarthritis and Cartilage, 2000, 8(6), 434; read-out: NO Synthesis inhibitory activity IC50; cited from earlier work
PGE2 Synthesis [2] = details: Human chondrocytes, IL-1β induced; Osteoarthritis and Cartilage, 2000, 8(6), 434; read-out: PGE2 Synthesis inhibitory activity IC50; cited from earlier work
NO Synthesis [3] = details: Human articular chondrocytes, IL-1β induced; Free Rad.Biol.Med. 33, 1097-1105, 2002; read-out: NO Synthesis inhibitory activity IC50; cited from earlier work
PGE2 Synthesis [4] = details: Human articular chondrocytes, IL-1β induced; Free Rad.Biol.Med. 33, 1097-1105, 2002; read-out: PGE2 Synthesis inhibitory activity IC50; cited from earlier work
GAG Release = details: Human articular cartilage, IL-1β induced; JPET, 308, 767-773, 2004; read-out: GAG Release inhibitory activity IC50; cited from earlier work
PGE2 Synthesis [5] = experiment: IL-1β induced PGE2 synthesis in chondrocyte culture (RIA); assay type: cell-based, New Zealand white rabbits; details: Oryctolagus cuniculus, rabbit articular chondrocytes, stimulation with 0.3 ng/mL of IL-1β, 24 h, read-out: PGE2 Synthesis inhibitory activity IC50
Method: (§1) Inhibitory effects of compounds of this invention were assessed according to the following in vitro assay:
(§2) Normal articular chondrocytes were obtained from young New Zealand white rabbits. Shoulders, femoral heads and knees were detached and transferred under a laminar flow hood. The articular cartilage was removed from the articular surfaces under sterile conditions. Tissue fragments were successively digested in an incubator (37°C, 5% CO2/95% air) with enzymes dissolved in DMEM plus 50 µg/ml gentamicin and sterile filtered. The three-step digestion was carried out with 0.05% testicular hyaluronidase for 15 min, followed by 0.25% trypsin for 30 min, and 0.2% clostridium collagenase for 90 min. At the end of the incubation period, chondrocyte suspension was two-fold diluted with DMEM plus 10% FCS, passed through a 200 µm and a 50 µm nylon sieves to remove debris and undigested matrix particles. […]
PGE2 released into the culture medium was determined with a RadioImmunoAssay (RIA) performed according to the instructions of the PGE2 antiserum manufacturer (Sigma). […] The supernatant was counted in 7 ml of Ultima-Gold MV® and the amount of radioactivity measured in a Packard Tricarb β-counter. […]

[6] = Metabolic stability in dog liver S9 fraction; assay type: in vitro ADME; details: dog liver S9, 1µM, average of two experiments
Text: (§3) Metabolic stability for the compounds of the invention has been assessed using rat, dog and human liver S9 fractions, using the same methods as described in the literature (R Singh et al., Rapid Commun. Mass Spectrom., 10, 9, 1019-26, 1996).
(§4) Permeability and metabolic stability data are the average of two experiments.

[7] = Metabolic stability in human liver S9 fraction; assay type: in vitro ADME; details: human liver S9, 1µM, average of two experiments
Text: as §3, §4

Solubility in water = assay type: physicochemical; details: pH 7.4, aqueous buffer
[8] = Metabolic stability in rat liver S9 fraction; assay type: in vitro ADME; details: rat liver S9, 1µM, average of two experiments
Text: as §3, §4

[9] = tested on: IL-1β induced GAG release; experiment: IL-1β induced GAG release in chondrocyte culture (DMB assay); assay type: cell-based, New Zealand white rabbits; details: Oryctolagus cuniculus, rabbit articular chondrocytes, stimulation with 0.3 ng/mL of IL-1β, 24 h, read-out: GAG Release inhibitory activity IC50
Method: as §1, §2
Proteoglycans associated to cell monolayer were quantified with Dimethylmethylene blue (DMB) assay. […] The absorbance was read within 20 min at 590 nm with a HTS7000plus plate reader. […] The optical density was measured at 590 nm using a plate reader HTS7000plus (Perkin Elmer).

[10] = Apparent permeability (Papp) across TC-7 cell monolayer; assay type: in vitro ADME; details: human, Caco-2; TC-7 cells, pH 6.5/7.4, average of two experiments
Text: The preferred route of administration for the compounds of the invention is oral, therefore the compound should have suitable permeability across the human intestinal epithelia to allow absorption into the circulation. However, also when the parenteral route is chosen for administration, an effective compound must be sufficiently permeable across biological membranes to reach the site/s of action. The permeability of compounds of formula (I) has been assessed in vitro using the apparent permeability coefficients approach (Papp) (Pharmacokinetics Optimization in Drug Research: biological, physicochemical and computational strategies; Bernard Testa, Han van de Waterbeemd, 2001, Wiley). The TC-7 clone was used instead of the Caco-2 cell line for this assessment, since it was reported that the two human intestinal epithelial cell lines are equivalent as far as drug transport characteristics are concerned and thus can be used interchangeably to predict absorption in humans after oral administration (MC Gres et al., Pharm. Res., 15, 5, 726-33, 1998); the experimental work was carried out as described in the mentioned literature.
as §4

NO Synthesis [11] = experiment: IL-1β induced NO synthesis in chondrocyte culture (nitrite, DAN fluorometric method); assay type: cell-based, New Zealand white rabbits; details: Oryctolagus cuniculus, rabbit articular chondrocytes, stimulation with 0.3 ng/mL of IL-1β, 24 h, read-out: NO Synthesis inhibitory activity IC50
Method: as §1
as §2, with “min.” for “min. At the end of the incubation period, chondrocyte suspension was two-fold diluted with DMEM plus 10% FCS, passed through a 200 µm and a 50 µm nylon sieves to remove debris and undigested matrix particles.”
NO production by chondrocytes was measured as nitrite, a stable end product and a reliable indicator of NO synthesis. Nitrites released in the culture supernatant were quantified with the fluorometric method according to Misko (Misko TP, Schilling RJ, Salvemini D, Moore WM, Currie MG. Anal Biochem; 214:11-16, 1993). […] The intensity of fluorescence was recorded in a 96-well plate (optiplate, Packard) with a plate reader (HTS7000 plus, Perkin Elmer) with excitation at 360 nm and emission read at 465 nm. Nitrite concentrations were calculated from a standard curve of sodium nitrite ranging from 10 to 100 ng/ml.

COc1nccc(-c2c(-c3ccc(F)cc3)ncn2C2CCNCC2)n1 [SB-242235]
IC50 (NO Synthesis [1]): 1 µM
IC50 (PGE2 Synthesis [2]): 1 to 3 µM

O=C(O[C@@H]1Cc2c(O)cc(O)cc2O[C@@H]1c1cc(O)c(O)c(O)c1)c1cc(O)c(O)c(O)c1 [EGCG, epigallocatechin gallate]
IC50 (NO Synthesis [3]): ~200 µM
IC50 (PGE2 Synthesis [4]): > 200 µM
IC50 (GAG Release): ~100 µM

OC[C@@H](O)[C@@H](O)[C@H](O)c1cnc([C@@H](O)[C@H](O)[C@H](O)CO)cn1 [Compound 1.1, Bis-(1R, 1'R, 2S, 2'S, 3R, 3'R)-1,2,3,4-butanetetrol-1,1'-(2,5-pyrazinediyl)]
IC50 (PGE2 Synthesis [5]): 4 µM
In vitro metabolism Parent remaining (%) Test concentration 1µM Dog [6]: 96%
In vitro metabolism Parent remaining (%) Test concentration 1µM Human [7]: 108%
solubility (Solubility in water): ≤ 100 mM
In vitro metabolism Parent remaining (%) Test concentration 1µM Rat [8]: 110%
IC50 [9]: 46 µM
Papp A→B [10]: 113 ×10⁻⁶ cm/s
Papp B→A [10]: 72.9 ×10⁻⁶ cm/s
IC50 (NO Synthesis [11]): 8 µM
